Measurements reported in patent US10131652B2, “Pyrimidinyloxy benzene derivatives as herbicides” (E. I. DU PONT DE NEMOURS AND COMPANY, priority 2014, dated 2018).

Columns and labels:
Assay type in all cases: in vivo
[1] = test system: barnyardgrass (Echinochloa crus-galli); assay: Test D pre-/postemergence plant response; conditions: Postemergence; for Plant response rating, Barnyardgrass: scale 0 to 100, 0 no effect, 100 complete control
Summary of the method: (§1)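 Two application timings were run together: preemergence onto seeded loam–sand pots, and postemergence onto 1- to 4-leaf plants (2 to 18 cm) in peat/vermiculite medium with starter nutrients. Formulation was a non-phytotoxic solvent with surfactant. Ratings, 0 to 100, were made visually versus controls after 13 to 15 greenhouse days.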

[2] = test system: johnsongrass (Sorghum halepense); assay: Test D pre-/postemergence plant response; conditions: Postemergence; for Plant response rating, Johnsongrass: scale 0 to 100, 0 no effect, 100 complete control
Summary of the method: as §1

[3] = test system: large (Lg) crabgrass (Digitaria sanguinalis); assay: Test D pre-/postemergence plant response; conditions: Postemergence; for Plant response rating, Crabgrass, Large: scale 0 to 100, 0 no effect, 100 complete control
Summary of the method: as §1

[4] = test system: blackgrass (Alopecurus myosuroides); assay: Test D pre-/postemergence plant response; conditions: Postemergence; for Plant response rating, Blackgrass: scale 0 to 100, 0 no effect, 100 complete control
Summary of the method: as §1

[5] = test system: pigweed (Amaranthus retroflexus); assay: Test D pre-/postemergence plant response; conditions: Postemergence
Summary of the method: as §1

[6] = test system: giant foxtail (Setaria faberii); assay: Test D pre-/postemergence plant response; conditions: Postemergence; for Plant response rating, Foxtail, Giant: scale 0 to 100, 0 no effect, 100 complete control
Summary of the method: as §1

[7] = test system: soybean (Glycine max); assay: Test D pre-/postemergence plant response; conditions: Postemergence
Summary of the method: as §1

[8] = test system: yellow nutsedge (Cyperus esculentus); assay: Test D pre-/postemergence plant response; conditions: Postemergence
Summary of the method: as §1

[9] = test system: morningglory (Ipomoea coccinea); assay: Test D pre-/postemergence plant response; conditions: Postemergence
Summary of the method: as §1

[10] = test system: ragweed (common ragweed, Ambrosia elatior); assay: Test D pre-/postemergence plant response; conditions: Postemergence
Summary of the method: as §1

[11] = test system: waterhemp (common waterhemp, Amaranthus rudis); assay: Test D pre-/postemergence plant response; conditions: Postemergence
Summary of the method: as §1

[12] = test system: barnyardgrass (Echinochloa crus-galli); assay: Test B pre-/postemergence plant response; conditions: 1000 g ai/ha, 0 to 100 scale (0 no effect, 100 complete control)
Summary of the method: (§2)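 Steps: plant seeds in loam soil–sand mix; spray soil preemergence, and in parallel spray 2–10 cm one- to two-leaf plants postemergence; hold ~10 days in greenhouse; visually rate injury against untreated controls (0 = no effect, 100 = complete control).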

[13] = test system: pigweed (Amaranthus retroflexus); assay: Test B pre-/postemergence plant response; conditions: 1000 g ai/ha, 0 to 100 scale (0 no effect, 100 complete control)
Summary of the method: as §2

[14] = test system: giant foxtail (Setaria faberii); assay: Test B pre-/postemergence plant response; conditions: 1000 g ai/ha, 0 to 100 scale (0 no effect, 100 complete control)
Summary of the method: as §2

[15] = test system: corn (Zea mays); assay: Test B pre-/postemergence plant response; conditions: Postemergence, 1000 g ai/ha; 0 to 100 scale (0 no effect, 100 complete control)
Summary of the method: as §2

[16] = test system: wheat (Triticum aestivum); assay: Test B pre-/postemergence plant response; conditions: Postemergence, 1000 g ai/ha; 0 to 100 scale (0 no effect, 100 complete control)
Summary of the method: as §2

[17] = 31 g ai/ha, scale 0 to 100 (0 no effect, 100 complete control)
[18] = 62 g ai/ha, scale 0 to 100, 0 no effect, 100 complete control
[19] = 125 g ai/ha, scale 0 to 100, 0 no effect, 100 complete control

**Q.** For FCc1cc(-c2c(Br)cccc2Oc2ncc(Cl)cn2)no1 [Compound 191], which “Plant response rating (scale 0 to 100), Barnyardgrass” value ([1]; 16 g ai/ha) is on record?
**A.** The value was 5.

**Q.** What about the “Barnyardgrass plant response rating” value [1, 17] of the same compound?
**A.** The value was 5.

**Q.** And the “Plant response rating, Barnyardgrass” value ([1]; 62 g ai/ha)?
**A.** The value was 5.

**Q.** What about the “Plant response rating, Barnyardgrass” value ([1]; 125 g ai/ha) of the same compound?
**A.** The value was 10.

**Q.** What about the “Plant response rating (scale 0 to 100), Johnsongrass” value ([2]; 16 g ai/ha) of the same compound?
**A.** The value was 5.

**Q.** What about the “Johnsongrass plant response rating” value [2, 17] of the same compound?
**A.** The value was 5.

**Q.** And the “Plant response rating, Johnsongrass” value ([2]; 62 g ai/ha)?
**A.** Its value is 5.

**Q.** And the “Plant response rating, Johnsongrass” value ([2]; 125 g ai/ha)?
**A.** The value was 5.

**Q.** And the “Plant response rating (scale 0 to 100), Crabgrass, Large” value ([3]; 16 g ai/ha)?
**A.** Its value is 5.

**Q.** And the “Crabgrass, Large plant response rating” value [3, 17]?
**A.** Its value is 10.

**Q.** What about the “Plant response rating, Crabgrass, Large” value ([3]; 62 g ai/ha) of the same compound?
**A.** Its value is 10.

**Q.** And the “Plant response rating, Crabgrass, Large” value ([3]; 125 g ai/ha)?
**A.** Its value is 20.

**Q.** What about the “Plant response rating (scale 0 to 100), Blackgrass” value ([4]; 16 g ai/ha) of the same compound?
**A.** The value was 0.

**Q.** What about the “Blackgrass plant response rating” value [4, 17] of the same compound?
**A.** Its value is 0.

**Q.** What about the “Plant response rating, Blackgrass” value ([4]; 62 g ai/ha) of the same compound?
**A.** Its value is 0.

**Q.** And the “Plant response rating, Blackgrass” value ([4]; 125 g ai/ha)?
**A.** Its value is 5.

**Q.** And the “Plant response rating (scale 0 to 100), Pigweed” value ([5]; 16 g ai/ha)?
**A.** Its value is 35.

**Q.** And the “Pigweed plant response rating” value [5, 17]?
**A.** The value was 30.

**Q.** And the “Pigweed plant response rating” value [5, 18]?
**A.** Its value is 30.

**Q.** And the “Plant response rating, Pigweed” value [5, 19]?
**A.** Its value is 60.

**Q.** What about the “Plant response rating (scale 0 to 100), Foxtail, Giant” value ([6]; 16 g ai/ha) of the same compound?
**A.** Its value is 5.

**Q.** What about the “Foxtail, Giant plant response rating” value [6, 17] of the same compound?
**A.** Its value is 5.

**Q.** What about the “Plant response rating, Foxtail, Giant” value ([6]; 62 g ai/ha) of the same compound?
**A.** Its value is 5.

**Q.** What about the “Plant response rating, Foxtail, Giant” value ([6]; 125 g ai/ha) of the same compound?
**A.** The value was 5.

**Q.** And the “Plant response rating (scale 0 to 100), Soybean” value ([7]; 16 g ai/ha)?
**A.** Its value is 45.

**Q.** What about the “Soybean plant response rating” value [7, 17] of the same compound?
**A.** The value was 65.

**Q.** What about the “Soybean plant response rating” value [7, 18] of the same compound?
**A.** The value was 75.

**Q.** What about the “Plant response rating, Soybean” value [7, 19] of the same compound?
**A.** Its value is 95.

**Q.** What about the “Plant response rating (scale 0 to 100), Nutsedge, Yellow” value ([8]; 16 g ai/ha) of the same compound?
**A.** The value was 0.

**Q.** What about the “Nutsedge, Yellow plant response rating” value [8, 17] of the same compound?
**A.** Its value is 5.

**Q.** What about the “Nutsedge, Yellow plant response rating” value [8, 18] of the same compound?
**A.** The value was 5.

**Q.** And the “Plant response rating, Nutsedge, Yellow” value [8, 19]?
**A.** The value was 10.

**Q.** And the “Plant response rating (scale 0 to 100), Morningglory” value ([9]; 16 g ai/ha)?
**A.** The value was 65.

**Q.** And the “Morningglory plant response rating” value [9, 17]?
**A.** The value was 65.

**Q.** What about the “Morningglory plant response rating” value [9, 18] of the same compound?
**A.** The value was 60.

**Q.** What about the “Plant response rating, Morningglory” value [9, 19] of the same compound?
**A.** The value was 85.

**Q.** What about the “Plant response rating (scale 0 to 100), Ragweed” value ([10]; 16 g ai/ha) of the same compound?
**A.** The value was 30.

**Q.** And the “Ragweed plant response rating” value [10, 17]?
**A.** Its value is 40.

**Q.** What about the “Ragweed plant response rating” value [10, 18] of the same compound?
**A.** Its value is 60.

**Q.** And the “Plant response rating, Ragweed” value [10, 19]?
**A.** The value was 65.

**Q.** What about the “Plant response rating (scale 0 to 100), Waterhemp” value ([11]; 16 g ai/ha) of the same compound?
**A.** The value was 25.

**Q.** What about the “Waterhemp plant response rating” value [11, 17] of the same compound?
**A.** Its value is 60.

**Q.** And the “Waterhemp plant response rating” value [11, 18]?
**A.** The value was 70.

**Q.** And the “Plant response rating, Waterhemp” value [11, 19]?
**A.** The value was 65.

**Q.** What about the “Plant response rating, Barnyardgrass” value ([12]; Postemergence) of the same compound?
**A.** The value was 100.

**Q.** And the “Plant response rating, Barnyardgrass” value ([12]; Preemergence)?
**A.** The value was 100.

**Q.** What about the “Plant response rating, Pigweed” value ([13]; Postemergence) of the same compound?
**A.** The value was 100.

**Q.** What about the “Plant response rating, Pigweed” value ([13]; Preemergence) of the same compound?
**A.** The value was 100.

**Q.** And the “Plant response rating, Foxtail, Giant” value ([14]; Postemergence)?
**A.** Its value is 100.

**Q.** What about the “Plant response rating, Foxtail, Giant” value ([14]; Preemergence) of the same compound?
**A.** The value was 100.

**Q.** And the “Plant response rating, Corn” value [15]?
**A.** The value was 60.

**Q.** And the “Plant response rating, Wheat” value [16]?
**A.** Its value is 30.
